Source: article PMC4503722, “Novel Phenotypic Outcomes Identified for a Public Collection of Approved Drugs from a Publicly Accessible Panel of Assays” (PLoS ONE, 2015)

Test system: INS-1E cells
Experiment: cells
Format: cell-based, rat
Conditions: 5 mM glucose; for 5mMGluc_INS1E SecretionMod IC50/EC50: assay number 8
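Also: secreted insulin quantified by homogeneous immunoassay.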

CN(C)CC/C=C1\c2ccccc2Sc2ccc(Cl)cc21 [NCGC00013683-06]
5mMGluc_INS1E SecretionMod IC50/EC50: > 33.33 µM

CN(C)CC[C@H](c1ccc(Cl)cc1)c1ccccn1 [NCGC00015227-08]
5mMGluc_INS1E SecretionMod IC50/EC50: 17.749 µM

COc1ccc(Cl)cc1C(=O)NCCc1ccc(S(=O)(=O)NC(=O)NC2CCCCC2)cc1 [NCGC00015467-20]
IC50/EC50, 5mMGluc_INS1E SecretionMod (assay number 8): 0.00808 µM

CN1CCN2c3ccccc3Cc3ccccc3C2C1 (stereo not shown) [NCGC00015656-12]
5mMGluc_INS1E SecretionMod IC50/EC50: > 11.11 µM

N=c1nc(N2CCCCC2)cc(N)n1O [NCGC00015673-13]
IC50/EC50, 5mMGluc_INS1E SecretionMod (assay number 8): > 33.33 µM

CC(CCc1ccccc1)NC(C)C(O)c1ccc(O)cc1 (stereo not shown) [NCGC00015716-09]
5mMGluc_INS1E SecretionMod IC50/EC50: 14.4759 µM

COc1ccc(CN(CCN(C)C)c2ccccn2)cc1 [NCGC00015822-15]
IC50/EC50, 5mMGluc_INS1E SecretionMod (assay number 8): 15.3614 µM

CN(C)CCCOc1nn(Cc2ccccc2)c2ccccc12.Cl [NCGC00016397-04]
IC50/EC50, 5mMGluc_INS1E SecretionMod (assay number 8): 21.3864 µM

CC(=O)c1ccc2c(c1)N(CCCN(C)C)c1ccccc1S2 [NCGC00016634-04]
5mMGluc_INS1E SecretionMod IC50/EC50: 11.3835 µM

CCCCOc1cc(C(=O)OCCN(CC)CC)ccc1N [NCGC00016667-04]
5mMGluc_INS1E SecretionMod IC50/EC50: 15.5055 µM

O=C(CCCN1CCC(O)(c2ccc(Br)cc2)CC1)c1ccc(F)cc1 [NCGC00016692-05]
5mMGluc_INS1E SecretionMod IC50/EC50: > 33.33 µM

COc1ccc2c(c1)C(=O)N(CCc1ccc(S(=O)(=O)NC(=O)NC3CCCCC3)cc1)C(=O)C2(C)C [NCGC00016819-05]
5mMGluc_INS1E SecretionMod IC50/EC50: 0.2299 µM

CCC1=C(C)CN(C(=O)NCCc2ccc(S(=O)(=O)NC(=O)NC3CCC(C)CC3)cc2)C1=O (stereo not shown) [NCGC00016960-07]
5mMGluc_INS1E SecretionMod IC50/EC50: 0.00406 µM
